Laboratory results as given in patent publication US20170190705A1, “Compositions and Methods for Inhibiting BMP” (THE BRIGHAM AND WOMAN'S HOSPITAL, INC., priority 2014, published 2017).

Tests used:
Assay type in all cases: biochemical
AURORA-C = target: T1, AURORA-C (Homo sapiens, UniProt Q9UQB9); assay: Kinome profiling AURORA-C; conditions: read-out: Inhibitory activity AURORA-C; for inhibition at 0.1 µM: 100 nM
T1 sequence (Q9UQB9 1-309): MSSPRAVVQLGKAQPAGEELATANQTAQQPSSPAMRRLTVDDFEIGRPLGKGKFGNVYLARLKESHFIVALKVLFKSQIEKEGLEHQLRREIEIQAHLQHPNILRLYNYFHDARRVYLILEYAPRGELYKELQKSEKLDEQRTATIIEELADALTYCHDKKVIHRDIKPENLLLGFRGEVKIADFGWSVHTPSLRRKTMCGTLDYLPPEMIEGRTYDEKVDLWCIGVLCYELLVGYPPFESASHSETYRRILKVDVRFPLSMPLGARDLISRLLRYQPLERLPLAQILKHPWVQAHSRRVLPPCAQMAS
Method: (§1) . The kinome-wide selectivity was determined following the methods previously reported by Mohedas et al., ACS Chem Biol 2013, 8, 1291-1302 and Sanvitale et al., PLoS One 2013, 8, e62721.

CK1-γ1 = CK1-γ1 (Homo sapiens, UniProt Q9HCP0); assay: Kinome profiling CK1-γ1; conditions: read-out: Inhibitory activity CK1-γ1; for inhibition at 0.1 µM: 100 nM
Sequence of CK1-γ1 (Q9HCP0 whole entry): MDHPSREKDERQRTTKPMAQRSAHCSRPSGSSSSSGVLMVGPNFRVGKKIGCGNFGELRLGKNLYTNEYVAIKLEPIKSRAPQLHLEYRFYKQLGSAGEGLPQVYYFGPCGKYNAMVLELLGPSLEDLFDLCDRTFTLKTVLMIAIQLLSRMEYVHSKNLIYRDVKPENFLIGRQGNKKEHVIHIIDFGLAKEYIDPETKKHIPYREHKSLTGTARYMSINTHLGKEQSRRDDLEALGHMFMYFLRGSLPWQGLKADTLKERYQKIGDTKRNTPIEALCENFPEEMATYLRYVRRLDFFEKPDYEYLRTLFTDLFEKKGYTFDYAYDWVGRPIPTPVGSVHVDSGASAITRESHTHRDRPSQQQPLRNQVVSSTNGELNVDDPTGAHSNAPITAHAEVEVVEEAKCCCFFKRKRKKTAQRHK
Method: as §1

FLT-1 = FLT-1 (Homo sapiens, UniProt P17948); assay: Kinome profiling FLT-1; conditions: read-out: Inhibitory activity FLT-1; for inhibition at 0.1 µM: 100 nM
Sequence of FLT-1 (P17948 27-1338): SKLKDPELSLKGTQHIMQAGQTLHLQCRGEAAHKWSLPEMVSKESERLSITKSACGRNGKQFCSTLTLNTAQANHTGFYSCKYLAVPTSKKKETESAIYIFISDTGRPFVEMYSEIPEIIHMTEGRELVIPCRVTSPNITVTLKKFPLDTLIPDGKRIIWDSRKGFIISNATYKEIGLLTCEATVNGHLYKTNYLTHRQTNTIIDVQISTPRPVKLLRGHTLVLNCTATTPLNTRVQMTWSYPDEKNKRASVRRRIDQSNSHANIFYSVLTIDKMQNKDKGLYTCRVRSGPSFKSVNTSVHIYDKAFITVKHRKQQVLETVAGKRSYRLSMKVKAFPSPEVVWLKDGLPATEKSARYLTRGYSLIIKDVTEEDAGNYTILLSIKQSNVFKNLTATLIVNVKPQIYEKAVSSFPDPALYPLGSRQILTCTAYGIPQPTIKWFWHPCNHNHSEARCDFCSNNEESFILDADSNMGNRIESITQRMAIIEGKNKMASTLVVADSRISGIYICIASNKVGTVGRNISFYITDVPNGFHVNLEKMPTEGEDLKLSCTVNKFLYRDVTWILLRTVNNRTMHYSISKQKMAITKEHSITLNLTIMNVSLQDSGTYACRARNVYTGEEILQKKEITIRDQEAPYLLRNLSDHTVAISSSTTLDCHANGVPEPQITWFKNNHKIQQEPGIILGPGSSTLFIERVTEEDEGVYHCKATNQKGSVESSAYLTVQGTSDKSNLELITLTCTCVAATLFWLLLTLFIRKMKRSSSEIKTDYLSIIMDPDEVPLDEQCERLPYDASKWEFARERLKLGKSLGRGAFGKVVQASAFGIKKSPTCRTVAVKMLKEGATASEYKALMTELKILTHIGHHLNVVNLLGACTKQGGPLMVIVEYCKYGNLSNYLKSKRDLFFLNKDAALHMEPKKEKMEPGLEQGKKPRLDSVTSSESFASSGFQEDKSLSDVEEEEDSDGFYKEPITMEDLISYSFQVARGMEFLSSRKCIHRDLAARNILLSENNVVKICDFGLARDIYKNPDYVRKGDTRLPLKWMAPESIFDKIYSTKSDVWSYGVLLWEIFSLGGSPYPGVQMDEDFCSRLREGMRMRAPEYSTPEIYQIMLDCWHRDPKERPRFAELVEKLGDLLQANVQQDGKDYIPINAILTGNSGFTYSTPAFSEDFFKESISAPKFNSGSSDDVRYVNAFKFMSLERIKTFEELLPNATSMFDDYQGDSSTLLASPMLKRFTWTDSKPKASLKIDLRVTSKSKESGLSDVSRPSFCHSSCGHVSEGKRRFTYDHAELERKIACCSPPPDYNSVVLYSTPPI
Method: as §1

RET = RET (Homo sapiens, UniProt P07949); assay: Kinome profiling RET; conditions: read-out: Inhibitory activity RET; for inhibition at 0.1 µM: 100 nM
Method: as §1

MSSK1 = MSSK1 (Homo sapiens, UniProt Q9UPE1); assay: Kinome profiling MSSK1; conditions: read-out: Inhibitory activity MSSK1; for inhibition at 0.1 µM: 100 nM
Sequence of MSSK1 (Q9UPE1 whole entry): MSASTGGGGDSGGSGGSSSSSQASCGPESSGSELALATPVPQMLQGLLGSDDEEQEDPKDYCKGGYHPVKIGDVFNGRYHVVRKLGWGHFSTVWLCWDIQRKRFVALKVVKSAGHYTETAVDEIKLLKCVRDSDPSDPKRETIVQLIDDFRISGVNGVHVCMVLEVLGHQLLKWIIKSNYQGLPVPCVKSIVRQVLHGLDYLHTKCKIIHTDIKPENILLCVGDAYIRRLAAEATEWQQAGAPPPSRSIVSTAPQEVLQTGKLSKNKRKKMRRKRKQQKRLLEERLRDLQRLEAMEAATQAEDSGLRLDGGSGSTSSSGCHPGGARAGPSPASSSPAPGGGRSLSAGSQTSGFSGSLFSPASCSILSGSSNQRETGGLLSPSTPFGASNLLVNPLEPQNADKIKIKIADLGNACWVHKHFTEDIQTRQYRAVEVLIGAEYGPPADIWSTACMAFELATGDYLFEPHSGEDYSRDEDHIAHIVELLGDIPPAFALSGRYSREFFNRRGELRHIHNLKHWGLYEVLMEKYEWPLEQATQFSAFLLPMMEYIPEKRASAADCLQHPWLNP
Method: as §1

ERB-B2 = ERB-B2 (Homo sapiens, UniProt P04626); assay: Kinome profiling ERB-B2; conditions: read-out: Inhibitory activity ERB-B2; for inhibition at 0.1 µM: 100 nM
Sequence of ERB-B2 (P04626 23-1255): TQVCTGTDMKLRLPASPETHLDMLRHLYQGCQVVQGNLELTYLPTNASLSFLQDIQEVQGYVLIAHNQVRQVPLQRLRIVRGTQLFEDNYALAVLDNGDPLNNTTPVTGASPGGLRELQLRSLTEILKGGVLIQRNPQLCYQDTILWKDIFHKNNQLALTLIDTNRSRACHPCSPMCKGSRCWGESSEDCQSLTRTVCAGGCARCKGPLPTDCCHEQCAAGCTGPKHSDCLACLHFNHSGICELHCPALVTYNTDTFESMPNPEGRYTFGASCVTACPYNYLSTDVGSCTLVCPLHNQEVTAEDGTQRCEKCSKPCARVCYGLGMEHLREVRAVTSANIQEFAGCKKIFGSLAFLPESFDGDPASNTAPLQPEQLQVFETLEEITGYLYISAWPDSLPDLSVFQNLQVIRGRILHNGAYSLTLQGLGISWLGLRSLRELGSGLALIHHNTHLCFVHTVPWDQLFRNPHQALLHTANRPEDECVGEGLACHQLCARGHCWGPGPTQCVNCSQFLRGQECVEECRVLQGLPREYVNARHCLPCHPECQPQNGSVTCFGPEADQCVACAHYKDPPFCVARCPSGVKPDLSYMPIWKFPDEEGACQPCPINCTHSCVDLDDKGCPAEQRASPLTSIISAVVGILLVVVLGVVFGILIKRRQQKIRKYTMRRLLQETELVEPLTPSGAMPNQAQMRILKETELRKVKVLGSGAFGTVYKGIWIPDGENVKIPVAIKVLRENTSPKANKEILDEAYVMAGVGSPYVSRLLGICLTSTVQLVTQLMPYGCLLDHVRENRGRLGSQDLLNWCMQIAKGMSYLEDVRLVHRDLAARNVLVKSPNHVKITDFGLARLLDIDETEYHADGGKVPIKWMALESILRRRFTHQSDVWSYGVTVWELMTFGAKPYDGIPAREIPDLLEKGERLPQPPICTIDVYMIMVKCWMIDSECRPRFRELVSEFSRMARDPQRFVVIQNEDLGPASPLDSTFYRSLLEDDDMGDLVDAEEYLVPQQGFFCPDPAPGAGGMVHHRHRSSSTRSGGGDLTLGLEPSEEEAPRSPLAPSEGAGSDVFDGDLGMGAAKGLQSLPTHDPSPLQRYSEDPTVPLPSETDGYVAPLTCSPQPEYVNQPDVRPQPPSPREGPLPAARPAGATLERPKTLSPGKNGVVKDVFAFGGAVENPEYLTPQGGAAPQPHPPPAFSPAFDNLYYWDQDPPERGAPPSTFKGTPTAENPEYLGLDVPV
Method: as §1

NEK1 = target: T2, NEK1 (Homo sapiens, UniProt Q96PY6); assay: Kinome profiling NEK1; conditions: read-out: Inhibitory activity NEK1; for inhibition at 0.1 µM: 100 nM
T2 sequence (Q96PY6 1-1258): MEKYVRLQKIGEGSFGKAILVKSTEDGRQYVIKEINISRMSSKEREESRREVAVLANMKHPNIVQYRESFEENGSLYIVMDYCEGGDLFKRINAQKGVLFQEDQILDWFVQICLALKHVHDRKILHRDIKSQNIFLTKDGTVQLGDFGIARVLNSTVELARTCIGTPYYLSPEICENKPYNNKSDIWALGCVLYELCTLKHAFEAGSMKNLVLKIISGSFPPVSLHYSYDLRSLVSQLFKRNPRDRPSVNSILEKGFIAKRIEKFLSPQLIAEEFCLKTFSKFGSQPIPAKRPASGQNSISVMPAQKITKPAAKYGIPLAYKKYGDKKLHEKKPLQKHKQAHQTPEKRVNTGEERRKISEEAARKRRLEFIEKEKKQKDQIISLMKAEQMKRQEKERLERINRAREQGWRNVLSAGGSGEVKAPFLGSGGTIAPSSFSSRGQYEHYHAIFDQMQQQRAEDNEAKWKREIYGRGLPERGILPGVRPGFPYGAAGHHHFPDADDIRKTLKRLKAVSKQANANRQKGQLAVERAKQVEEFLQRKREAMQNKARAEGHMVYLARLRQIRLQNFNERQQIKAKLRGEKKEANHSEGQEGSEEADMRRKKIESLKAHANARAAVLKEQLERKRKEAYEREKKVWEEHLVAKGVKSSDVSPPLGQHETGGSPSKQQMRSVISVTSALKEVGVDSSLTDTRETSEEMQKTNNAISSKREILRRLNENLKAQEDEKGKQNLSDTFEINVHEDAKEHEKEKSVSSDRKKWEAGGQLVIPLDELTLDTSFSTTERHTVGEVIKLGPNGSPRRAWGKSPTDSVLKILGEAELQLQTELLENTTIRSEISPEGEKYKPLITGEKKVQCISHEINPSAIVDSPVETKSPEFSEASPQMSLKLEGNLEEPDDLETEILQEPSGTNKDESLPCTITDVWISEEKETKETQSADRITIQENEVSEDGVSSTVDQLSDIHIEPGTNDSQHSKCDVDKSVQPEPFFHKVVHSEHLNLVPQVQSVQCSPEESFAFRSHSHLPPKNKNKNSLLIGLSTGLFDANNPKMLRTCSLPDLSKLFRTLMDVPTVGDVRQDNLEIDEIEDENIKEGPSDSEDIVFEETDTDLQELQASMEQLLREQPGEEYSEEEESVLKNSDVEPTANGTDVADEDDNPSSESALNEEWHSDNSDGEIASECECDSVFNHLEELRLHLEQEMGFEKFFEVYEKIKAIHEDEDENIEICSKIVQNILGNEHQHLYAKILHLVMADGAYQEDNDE
Method: as §1

MARK1 = MARK1 (Homo sapiens, UniProt Q9P0L2); assay: Kinome profiling MARK1; conditions: read-out: Inhibitory activity MARK1; for inhibition at 0.1 µM: 100 nM
Sequence of MARK1 (Q9P0L2 whole entry): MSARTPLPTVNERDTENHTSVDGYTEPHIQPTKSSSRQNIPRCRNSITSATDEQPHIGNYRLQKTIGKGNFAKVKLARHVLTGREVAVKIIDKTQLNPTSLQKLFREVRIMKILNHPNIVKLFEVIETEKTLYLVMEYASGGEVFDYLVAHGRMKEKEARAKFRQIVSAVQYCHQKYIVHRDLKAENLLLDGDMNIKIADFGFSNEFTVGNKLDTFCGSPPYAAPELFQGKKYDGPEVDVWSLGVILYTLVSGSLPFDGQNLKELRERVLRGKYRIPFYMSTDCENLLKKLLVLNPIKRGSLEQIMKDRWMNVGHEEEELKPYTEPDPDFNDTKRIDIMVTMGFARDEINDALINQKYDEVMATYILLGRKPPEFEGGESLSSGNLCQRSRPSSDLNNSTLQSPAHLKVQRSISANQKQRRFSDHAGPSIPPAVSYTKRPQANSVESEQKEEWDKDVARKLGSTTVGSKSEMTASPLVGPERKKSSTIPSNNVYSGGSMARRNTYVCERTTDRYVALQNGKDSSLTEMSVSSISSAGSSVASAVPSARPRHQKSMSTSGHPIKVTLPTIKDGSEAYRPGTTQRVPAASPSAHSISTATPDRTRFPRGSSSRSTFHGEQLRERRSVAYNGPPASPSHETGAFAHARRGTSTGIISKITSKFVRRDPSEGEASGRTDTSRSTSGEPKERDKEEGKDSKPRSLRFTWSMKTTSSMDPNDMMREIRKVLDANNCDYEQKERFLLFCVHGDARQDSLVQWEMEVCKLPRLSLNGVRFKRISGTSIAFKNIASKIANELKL
Method: as §1

SMILES	inhibition at 0.1 µM (AURORA-C) [%]	inhibition at 1 µM (AURORA-C) [%]	inhibition at 0.1 µM (CK1-γ1) [%]	inhibition at 1 µM (CK1-γ1) [%]	inhibition at 0.1 µM (FLT-1) [%]	inhibition at 1 µM (FLT-1) [%]	inhibition at 0.1 µM (RET) [%]	inhibition at 1 µM (RET) [%]	inhibition at 0.1 µM (MSSK1) [%]	inhibition at 1 µM (MSSK1) [%]	inhibition at 0.1 µM (ERB-B2) [%]	inhibition at 1 µM (ERB-B2) [%]	inhibition at 0.1 µM (NEK1) [%]	inhibition at 1 µM (NEK1) [%]	inhibition at 0.1 µM (MARK1) [%]	inhibition at 1 µM (MARK1) [%]
COc1cc(-c2cc(-c3ccc(N4CCNCC4)cc3)cnc2C)cc(OC)c1OC [Compound 10, 1-(4-(6-methyl-5-(3,4,5-trimethoxyphenyl)pyridin-3-yl)phenyl)piperazine]	1	1	1	6	8	16	2	2	2	2	0	3	2	1	0	2
COc1cc(-c2cc(-c3ccc(N4CCNCC4)cc3)cnc2N)cc(OC)c1OC [Compound 15, 5-(4-(piperazin-1-yl)phenyl)-3-(3,4,5-trimethoxyphenyl)pyridin-2-amine]	3	7	4	17	3	5	8	8	-2	0	0	5	1	1	3	31
